According to US7452887B2, “Quinoline- and isoquinoline-based compounds exhibiting ATP-utilizing enzyme inhibitory activity, and compositions, and uses thereof” (Amphora Discovery Corporation, priority 2004, dated 2008):

Key:
Test in all cases: HTS ATP-utilizing enzyme assay, off-chip mobility-shift (Caliper HTS 250)
Conditions in all cases: test compound 10 μM, kinase listed = active (greater than six-sigma from the mean activity of inactive compounds)
[1] = target: GSK3-α (Homo sapiens, UniProt P49840); format: biochemical
GSK3-α, sequence (P49840 whole entry): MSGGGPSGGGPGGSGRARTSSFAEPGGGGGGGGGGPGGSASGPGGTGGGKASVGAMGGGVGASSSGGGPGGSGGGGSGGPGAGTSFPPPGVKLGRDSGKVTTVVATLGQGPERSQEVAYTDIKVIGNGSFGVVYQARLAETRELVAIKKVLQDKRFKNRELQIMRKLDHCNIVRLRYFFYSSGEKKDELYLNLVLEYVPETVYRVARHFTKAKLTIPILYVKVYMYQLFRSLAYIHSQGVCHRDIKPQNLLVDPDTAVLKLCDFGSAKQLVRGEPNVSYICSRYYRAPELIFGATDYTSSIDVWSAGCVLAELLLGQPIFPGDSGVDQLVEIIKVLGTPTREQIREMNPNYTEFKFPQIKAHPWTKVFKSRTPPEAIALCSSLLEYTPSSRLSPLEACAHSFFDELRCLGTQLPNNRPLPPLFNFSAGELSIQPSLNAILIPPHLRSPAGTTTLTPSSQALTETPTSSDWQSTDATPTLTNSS
Outline: (§1)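 Test compound at 10 μM final was incubated with kinase and peptide substrate in HEPES pH 7.5 buffer with Triton X-100 and BSA for 2.5 hrs at 20° C. to 22° C., then stopped with EDTA. Inhibition came from the substrate-to-phosphorylated-product ratio on a microfluidic mobility-shift read. EDTA wells served as 100% control.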

[2] = target: PDGFR-α (Homo sapiens, UniProt P16234); format: biochemical
PDGFR-α, sequence (P16234 24-1089): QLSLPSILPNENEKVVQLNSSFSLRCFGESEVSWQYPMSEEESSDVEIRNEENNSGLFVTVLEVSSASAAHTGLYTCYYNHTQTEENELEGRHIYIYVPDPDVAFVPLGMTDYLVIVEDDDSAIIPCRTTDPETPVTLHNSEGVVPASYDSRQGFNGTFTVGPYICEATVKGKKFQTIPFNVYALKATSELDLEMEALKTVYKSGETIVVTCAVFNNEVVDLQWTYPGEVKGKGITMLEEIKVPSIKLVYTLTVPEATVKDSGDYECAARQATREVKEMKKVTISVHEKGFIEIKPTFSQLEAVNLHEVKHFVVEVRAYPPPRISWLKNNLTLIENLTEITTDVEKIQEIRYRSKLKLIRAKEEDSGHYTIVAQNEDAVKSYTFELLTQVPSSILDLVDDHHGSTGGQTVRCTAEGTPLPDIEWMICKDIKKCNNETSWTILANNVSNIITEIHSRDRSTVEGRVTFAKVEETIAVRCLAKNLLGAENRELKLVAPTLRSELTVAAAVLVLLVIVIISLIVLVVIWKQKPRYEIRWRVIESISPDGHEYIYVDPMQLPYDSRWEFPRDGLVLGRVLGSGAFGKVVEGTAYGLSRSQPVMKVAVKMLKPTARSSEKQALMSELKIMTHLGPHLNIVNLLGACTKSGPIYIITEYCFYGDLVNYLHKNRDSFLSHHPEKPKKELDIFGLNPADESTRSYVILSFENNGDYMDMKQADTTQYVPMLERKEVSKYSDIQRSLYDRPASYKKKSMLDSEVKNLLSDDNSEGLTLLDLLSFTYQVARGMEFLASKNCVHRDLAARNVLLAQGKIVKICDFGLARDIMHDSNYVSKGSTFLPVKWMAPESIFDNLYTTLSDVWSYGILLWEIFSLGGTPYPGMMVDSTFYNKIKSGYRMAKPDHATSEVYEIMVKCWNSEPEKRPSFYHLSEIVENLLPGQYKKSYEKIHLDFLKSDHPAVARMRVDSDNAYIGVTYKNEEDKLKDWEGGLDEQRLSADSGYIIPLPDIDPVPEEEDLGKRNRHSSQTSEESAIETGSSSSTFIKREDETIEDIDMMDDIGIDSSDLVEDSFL
Outline: as §1

[3] = target: SRC (Homo sapiens, UniProt P12931); format: biochemical
Outline: as §1

[4] = target: LYNA (Homo sapiens, UniProt P07948); format: biochemical
Outline: as §1

[5] = target: CHEK2 (Homo sapiens, UniProt O96017); format: biochemical
CHEK2, sequence (O96017 whole entry): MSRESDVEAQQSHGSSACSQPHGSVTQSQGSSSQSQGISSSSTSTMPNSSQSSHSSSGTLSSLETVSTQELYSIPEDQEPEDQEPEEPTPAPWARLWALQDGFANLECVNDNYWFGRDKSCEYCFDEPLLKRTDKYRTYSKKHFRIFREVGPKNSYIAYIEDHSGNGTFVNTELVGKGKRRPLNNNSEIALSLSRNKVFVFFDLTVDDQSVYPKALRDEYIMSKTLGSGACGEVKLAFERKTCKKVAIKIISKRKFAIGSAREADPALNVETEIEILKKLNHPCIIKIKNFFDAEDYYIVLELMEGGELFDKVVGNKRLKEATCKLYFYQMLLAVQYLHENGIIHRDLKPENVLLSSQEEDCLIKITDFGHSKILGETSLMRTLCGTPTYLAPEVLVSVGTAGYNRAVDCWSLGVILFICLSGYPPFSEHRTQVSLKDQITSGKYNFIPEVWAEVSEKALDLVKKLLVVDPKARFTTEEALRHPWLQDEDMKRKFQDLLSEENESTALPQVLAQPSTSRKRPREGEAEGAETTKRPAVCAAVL
Outline: as §1

[6] = target: CDK1/cyclin B (Homo sapiens, UniProt P06493); format: biochemical
CDK1/cyclin B, sequence (P06493 whole entry): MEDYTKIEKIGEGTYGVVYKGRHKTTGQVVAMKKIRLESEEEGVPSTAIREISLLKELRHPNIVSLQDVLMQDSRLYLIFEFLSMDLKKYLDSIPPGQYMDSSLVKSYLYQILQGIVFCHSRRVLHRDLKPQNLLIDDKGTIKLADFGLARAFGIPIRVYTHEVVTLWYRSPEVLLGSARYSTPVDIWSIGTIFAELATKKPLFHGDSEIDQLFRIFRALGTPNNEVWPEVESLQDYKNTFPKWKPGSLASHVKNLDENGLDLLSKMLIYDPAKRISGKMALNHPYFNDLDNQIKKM
CDK1/cyclin B, sequence (P14635 whole entry partner): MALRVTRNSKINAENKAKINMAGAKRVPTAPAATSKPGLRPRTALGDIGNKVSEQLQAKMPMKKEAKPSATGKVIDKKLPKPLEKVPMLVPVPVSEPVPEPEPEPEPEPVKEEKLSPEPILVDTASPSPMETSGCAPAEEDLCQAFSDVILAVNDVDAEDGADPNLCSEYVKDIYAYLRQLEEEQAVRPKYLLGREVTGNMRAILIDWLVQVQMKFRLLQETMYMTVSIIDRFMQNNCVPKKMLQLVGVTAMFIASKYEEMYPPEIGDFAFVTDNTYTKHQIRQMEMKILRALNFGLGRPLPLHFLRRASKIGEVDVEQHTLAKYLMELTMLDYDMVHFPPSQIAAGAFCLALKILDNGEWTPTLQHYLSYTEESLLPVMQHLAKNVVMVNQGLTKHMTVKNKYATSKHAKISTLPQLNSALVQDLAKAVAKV
Outline: as §1

[7] = target: LCK (Homo sapiens, UniProt P06239); format: biochemical
Outline: as §1

[8] = target: ABL1 (Homo sapiens, UniProt P00519); format: biochemical
Outline: as §1

[9] = target: AKT3 (Homo sapiens, UniProt Q9Y243); format: biochemical
AKT3, sequence (Q9Y243 whole entry): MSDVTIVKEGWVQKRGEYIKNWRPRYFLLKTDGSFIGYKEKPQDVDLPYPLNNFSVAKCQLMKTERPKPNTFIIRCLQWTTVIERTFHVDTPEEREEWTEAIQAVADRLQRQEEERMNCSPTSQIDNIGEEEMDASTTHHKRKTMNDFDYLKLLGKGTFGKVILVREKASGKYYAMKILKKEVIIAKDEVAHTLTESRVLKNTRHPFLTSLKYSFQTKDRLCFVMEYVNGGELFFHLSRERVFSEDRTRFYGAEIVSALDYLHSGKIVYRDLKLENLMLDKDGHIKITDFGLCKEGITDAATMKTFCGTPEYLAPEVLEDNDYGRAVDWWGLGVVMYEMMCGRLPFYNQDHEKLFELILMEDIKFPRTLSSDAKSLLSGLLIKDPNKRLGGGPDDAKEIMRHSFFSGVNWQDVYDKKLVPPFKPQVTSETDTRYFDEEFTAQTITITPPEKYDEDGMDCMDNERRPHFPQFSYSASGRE
Outline: as §1

[10] = target: SYK (Homo sapiens, UniProt P43405); format: biochemical
Outline: as §1

[11] = target: ROCK2 (Homo sapiens, UniProt O75116); format: biochemical
ROCK2, sequence (O75116 whole entry): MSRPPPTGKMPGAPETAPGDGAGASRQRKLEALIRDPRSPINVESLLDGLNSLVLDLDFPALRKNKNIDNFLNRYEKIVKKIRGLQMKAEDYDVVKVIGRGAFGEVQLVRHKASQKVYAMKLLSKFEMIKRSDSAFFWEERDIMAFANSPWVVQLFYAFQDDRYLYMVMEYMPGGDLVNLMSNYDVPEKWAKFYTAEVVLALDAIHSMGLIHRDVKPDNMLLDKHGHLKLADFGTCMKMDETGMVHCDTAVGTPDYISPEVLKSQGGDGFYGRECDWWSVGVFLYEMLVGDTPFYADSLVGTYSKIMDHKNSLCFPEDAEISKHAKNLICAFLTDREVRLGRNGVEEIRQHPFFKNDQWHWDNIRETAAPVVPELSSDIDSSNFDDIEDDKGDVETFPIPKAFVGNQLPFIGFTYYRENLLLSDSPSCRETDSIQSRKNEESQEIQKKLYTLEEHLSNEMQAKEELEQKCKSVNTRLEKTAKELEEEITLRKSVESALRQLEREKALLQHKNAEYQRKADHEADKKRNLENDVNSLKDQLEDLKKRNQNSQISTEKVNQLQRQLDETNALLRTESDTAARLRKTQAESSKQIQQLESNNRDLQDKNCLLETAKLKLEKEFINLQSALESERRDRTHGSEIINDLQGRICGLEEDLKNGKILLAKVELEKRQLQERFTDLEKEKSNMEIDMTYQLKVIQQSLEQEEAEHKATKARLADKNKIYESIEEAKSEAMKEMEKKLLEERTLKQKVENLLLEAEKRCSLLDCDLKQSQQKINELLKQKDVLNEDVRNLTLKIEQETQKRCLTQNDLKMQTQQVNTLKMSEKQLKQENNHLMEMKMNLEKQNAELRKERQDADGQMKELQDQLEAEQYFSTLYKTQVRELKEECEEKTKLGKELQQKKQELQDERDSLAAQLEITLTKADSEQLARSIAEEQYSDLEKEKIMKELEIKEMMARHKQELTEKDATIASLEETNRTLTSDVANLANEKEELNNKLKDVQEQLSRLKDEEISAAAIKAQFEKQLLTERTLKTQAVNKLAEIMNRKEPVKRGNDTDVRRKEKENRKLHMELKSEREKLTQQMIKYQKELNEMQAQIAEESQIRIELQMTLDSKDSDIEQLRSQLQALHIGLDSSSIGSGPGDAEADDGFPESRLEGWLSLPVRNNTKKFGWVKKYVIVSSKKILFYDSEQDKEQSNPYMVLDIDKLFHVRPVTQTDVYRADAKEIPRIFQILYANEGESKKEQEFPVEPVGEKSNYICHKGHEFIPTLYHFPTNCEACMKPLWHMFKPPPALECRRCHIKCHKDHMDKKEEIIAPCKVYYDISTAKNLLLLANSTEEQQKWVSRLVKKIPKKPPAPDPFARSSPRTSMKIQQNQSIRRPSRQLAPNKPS
Outline: as §1

[12] = system: CK2; format: biochemical, human
From the text: The following procedures describe the reagent and plate preparation for a HTS of an ATP-utilizing enzyme, such as a protein kinase, run in an off-chip mobility-shift assay format. The following provides an HTS protocol for running a protein kinase HTS screen on a Caliper HTS 250 microfluidics system. The following parameters are dependent on the protein kinase used and can be determined by one skilled in the art as part of a typical assay development process. For example, the peptide substrate used can be identified from the current literature, by screening a peptide library of potential protein kinase substrates, or by other applicable means accepted in the field.
The following table provides typical screen assay parameters appropriate for a Caliper HTS 250 microfluidics system.
The reagents and buffers listed in the following table are generally applicable for developing and running an HTS screen on a human protein kinase using the Caliper HTS 250 system.
The following reagents were prepared using the previously described buffers.
A 2× Master Buffer solution was prepared by combining 200 mL of 1 M HEPES, pH 7.5, 2 mL of 10% Triton X-100, 20 mL of 10% BSA, and 778 mL of H2O.
A 2.5× Substrate Buffer solution was prepared by combining 177.408 mL of 2× Master Buffer, 0.887 mL of 1 mM peptide-X, and 176.521 mL of H2O.
A 1.55× Termination Buffer solution was prepared by combining 762.05 mL of 2× Master Buffer, 95.1 mL of 0.5 M EDTA, and 666.94 mL of H2O. […]
Assays to determine the kinase inhibitory activity of compounds of the present disclosure were performed using a Caliper HTS 250 microfluidics device, Greiner U-bottom assay plates, a Multidrop for transfer of reagents, and Biomek FX (AMNCBM03) software. […] The inhibition of the ATP-utilizing enzyme, such as a particular protein kinase, was determined by measuring the ratio of the peptide substrate to phosphorylated product for each well of the assay plate using the Caliper HTS 250 system. […]

[13] = target: AKT1 (Homo sapiens, UniProt P31749); format: biochemical
Outline: as §1

[14] = target: PKA (Homo sapiens, UniProt P17612); format: biochemical
Outline: as §1

[15] = target: GSK-3-β (Homo sapiens, UniProt P49841); format: biochemical
Outline: as §1

[16] = target: CDK5 (Homo sapiens, UniProt Q00535); format: biochemical
Outline: as §1

[17] = target: MSK1 (Homo sapiens, UniProt O75582); format: biochemical
Outline: as §1

For `CN1CCN(c2ccc(Nc3ccnc4ccc(-c5ccc(F)cc5)cc34)cc2)CC1` [6-(4-fluorophenyl)-N-(4-(4-methylpiperazin-1-yl)phenyl)quinolin-4-amine], the Activity [1] was “GSK3-α”.
In the case of `COc1ccc(-c2ccc3nccc(N(C)c4ccc(N5CCN(C)CC5)cc4)c3c2)cc1` [6-(4-methoxyphenyl)-N-methyl-N-(4-(4-methylpiperazin-1-yl)phenyl)quinolin-4-amine], the Activity [2] is reported as “PDGFR-α”.
With `CN1CCN(c2ccc(Nc3ccnc4ccc(-c5cccc6ccccc56)cc34)cc2)CC1` [N-(4-(4-methylpiperazin-1-yl)phenyl)-6-(naphthalen-1-yl)quinolin-4-amine] the Activity [3] was “SRC”, the Activity [4] was “LYNA” and the Activity [5] was “CHEK2”. The Activity [6] was “CDK1/cyclin B”, the Activity [7] was “LCK” and the Activity [8] was “ABL1”. For the same compound, the Activity [9] was “AKT3” and the Activity [10] was “SYK”.
`COc1ccc(-c2ccc3nccc(Nc4ccc(N5CCNCC5)cc4)c3c2)cc1` [6-(4-methoxyphenyl)-N-(4-(piperazin-1-yl)phenyl)quinolin-4-amine] was tested, and the Activity [6] was “CDK1/cyclin B”.
In the case of `CN1CCN(c2ccc(Nc3ccnc4ccc(-c5ccc(O)cc5)cc34)cc2)CC1` [4-(4-(4-(4-methylpiperazin-1-yl)phenylamino)quinolin-6-yl)phenol], the Activity [11] is reported as “ROCK2”.
`CN1CCN(c2ccc(Nc3ccnc4ccc(-c5ccc6ccccc6c5)cc34)cc2)CC1` [N-(4-(4-methylpiperazin-1-yl)phenyl)-6-(naphthalen-2-yl)quinolin-4-amine] was tested, and the Activity [5] was “CHEK2” and the Activity [10] was “SYK”.
In the case of `CN1CCN(c2ccc(Nc3ccnc4ccc(-c5ccncc5)cc34)cc2)CC1` [N-(4-(4-methylpiperazin-1-yl)phenyl)-6-(pyridin-4-yl)quinolin-4-amine], the Activity [12] is reported as “CK2”, the Activity [13] is reported as “AKT1” and the Activity [1] is reported as “GSK-3-α”. The Activity [11] was “ROCK2”, the Activity [14] was “PKA” and the Activity [15] was “GSK-3-β”. For the same compound, the Activity [16] was “CDK5”, the Activity [17] was “MSK1” and the Activity [9] was “AKT3”.
With `c1ccc(-c2ccc3nccc(Nc4ccc(N5CCNCC5)cc4)c3c2)cc1` [6-phenyl-N-(4-(piperazin-1-yl)phenyl)quinolin-4-amine] the Activity [4] was “LYNA” and the Activity [2] was “PDGFR-α”.
